Data published in patent US8217059B2, “Compositions and methods for treating spasticity” (Allergan, Inc., priority 2009, dated 2012).
Entries after “also recorded” stand apart in the source; their conditions may differ.

Tests used:
[1] = system: rats with spasticity; test: Peripheral muscle resistance during computer-controlled ankle flexion in rats with ischemia-induced spasticity; type: in vivo
Protocol: (§1) After ischemia, animals with developed paraplegia were selected and maintained for 3-12 months. To identify the presence of spasticity, the following tests were performed at 7-14 day intervals as described below: 1) tonic EMG activity recorded from gastrocnemius muscle (i.e., stimulus-independent changes in EMG activity); 2) peripheral muscle resistance measurement during a computer controlled ankle-flexion and simultaneous EMG recording from gastrocnemius muscle (i.e., stimulus-dependent changes in EMG activity); and 3) motor evoked potential recording.
Peripheral muscle resistance was measured using a previously described system (O. Kakinohana, Neuroscience 1:141(3) (2006)). Briefly, animals are placed into a plastic restrainer and one hind paw attached by a tape to a metal plate driven by a computer-controlled stepping motor. The metal plate is equipped with a digital force transducer. The resistance of the ankle to flexion was measured during motor-driven ankle flexion and data collected directly to the computer.

[2] = system: rats with spasticity; test: Electromyographic (EMG) recording from gastrocnemius muscle during ankle flexion in rats with ischemia-induced spasticity; type: in vivo; conditions: 100 mg/kg i.p., FIG. 1
Protocol: as §1
To record EMGs, two silver needle (22 G) electrodes (distance between recording electrodes=1 cm) were placed percutaneously into the gastrocnemius muscle. Electrodes were connected to a preamplifier (HS4 fiber optic BIOAMP HEADSTAGE, WPI) and amplified using DB4 fiber optic amplifier (WPI). Animals were then allowed to acclimate for 10 min and the EMG responses recorded before, during and after ankle flexion. Recorded signal was digitized by the Instrunet Model 100 Network A/D, acquired by the Instrunet Model 200 PCI controller (Omega, USA) and stored in PC for analysis.

SMILES: N[C@@H](C(=O)N1CCCC1)[C@@H](O)c1ccncc1 [Compound A]
- spasticity associated with transient ischemia of the spinal cord ([1]; 100 mg/kg): inhibits the spasticity
- muscle resistance during the period of ankle flexion ([1]; 100 mg/kg of Compound A, spasticity after transient spinal cord ischemia): decrease in muscle resistance
- EMG response / EMG activity [2]: corresponding changes in EMG activity; also recorded: inhibits EMG response
